Read-outs that look alike come from different tables or passages of the source.
Columns and labels:
[1] = target: recombinant FoccCSP protein (Frankliniella occidentalis, UniProt A0A0C5AYL1); test: biochemical; format: binding; conditions: for Kd: Dissociation constant (KD), calculated from IC50 with Ki = [IC50]/(1+[1-NPN]/K1-NPN)
Description: (§1) Fluorescence binding assays were performed using a 970CRT spectrofluorophotometer (Lengguang, Shanghai, China) at 25°C with a 1 cm lightpath quartz cuvette and 10 nm slit width for excitation and emission. FoccCSP protein was diluted from a 2 μM stock solution with 50 mM Tris-HCl buffer (pH 7.4). The fluorescent probe N-phenyl-1-naphthylamine (1-NPN) was diluted from a 1 mM stock solution with methanol. The potential ligands were prepared in a similar manner as 1-NPN.
To measure the affinity of the 1-NPN fluorescent ligand for FoccCSP, the 2 μM protein solution prepared above was titrated with 1 mM 1-NPN to a final concentration between 2 and 20 μM. The affinities of the other potential ligands were measured using 1-NPN as a fluorescent reporter in competitive binding assays using 2 μM solutions of 1-NPN and FoccCSP and the addition of ligands to concentrations of 2–300 μM.
To determine the 1-NPN and FoccCSP binding constants, the intensity values corresponding to the maximum fluorescence emissions were plotted against the concentration of free ligand. The bound ligand was evaluated using the fluorescence intensity values assuming that the protein was 100% active and using a saturation stoichiometry of 1:1 protein:ligand. The curves were linearized using the Scatchard Plot program. The dissociation constants for the competitors were calculated from the corresponding IC50 values using the equation K i = [IC 50]/(1+[1-NPN]/K 1-NPN), where [1-NPN] is the free concentration of 1-NPN and K 1-NPN is the dissociation constant of the FoccCSP/1-NPN complex.

FoccCSP protein = target: T1, FoccCSP protein (Frankliniella occidentalis, UniProt A0A0C5AYL1); test: Binding of the fluorescent probe 1-NPN to FoccCSP (titration, Scatchard plot); conditions: 2 μM FoccCSP titrated with 1-NPN to 2–20 μM, read-out: FoccCSP/1-NPN complex dissociation constant
T1 sequence (A0A0C5AYL1 20-128): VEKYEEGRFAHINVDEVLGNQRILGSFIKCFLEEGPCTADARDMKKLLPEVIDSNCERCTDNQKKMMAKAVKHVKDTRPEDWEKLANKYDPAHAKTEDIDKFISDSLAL
Description: as §1
The intrinsic fluorescence of tryptophan was measured using a 2 μM FoccCSP protein solution. The excitation wavelength was 285 nm, and the emission spectrum was recorded between 290 and 530 nm. Quenching of the intrinsic fluorescence was measured in the presence of 2, 4, 6, 8, 10, 12, 14, 16, 18, and 20 μM 1-NPN under the same conditions.
To measure the affinity of the 1-NPN fluorescent ligand for FoccCSP, the 2 μM protein solution prepared above was titrated with 1 mM 1-NPN to a final concentration between 2 and 20 μM. […]
To determine the 1-NPN and FoccCSP binding constants, the intensity values corresponding to the maximum fluorescence emissions were plotted against the concentration of free ligand. The bound ligand was evaluated using the fluorescence intensity values assuming that the protein was 100% active and using a saturation stoichiometry of 1:1 protein:ligand. […]

[2] = competitive displacement of 1-NPN, 2 μM 1-NPN and 2 μM FoccCSP, ligands 2–300 μM, 50 mM Tris-HCl pH 7.4, 25°C, read-out: IC50

CCOC(=O)c1cccnc1 [Ethyl nicotinate]
IC50 [1]: 52 µM | Kd ([1]; 2 μM 1-NPN and 2 μM FoccCSP): 47.9 µM

O=Cc1ccccc1 [Benzaldehyde]
IC50 [1]: 52.5 µM | Kd ([1]; 2 μM 1-NPN and 2 μM FoccCSP): 48.4 µM

C=CCc1ccc(O)c(OC)c1 [Eugenol]
IC50 [1]: 96.4 µM | Kd ([1]; 2 μM 1-NPN and 2 μM FoccCSP): 88.9 µM

CC(C)=CCC/C(C)=C/CO [Geraniol]
IC50 [1]: 15.3 µM | Kd ([1]; 2 μM 1-NPN and 2 μM FoccCSP): 14.1 µM

C=CC(C)(O)CCC=C(C)C (centres unmarked) [Linalool]
IC50 [1]: 85.6 µM | Kd ([1]; 2 μM 1-NPN and 2 μM FoccCSP): 79 µM

CC(=O)OCc1ccccc1 [Benzyl acetate]
IC50 [1]: 98.2 µM | Kd ([1]; 2 μM 1-NPN and 2 μM FoccCSP): 90.5 µM

COC(=O)c1ccccc1O [Methyl salicylate]
IC50 [1]: 35.2 µM | Kd ([1]; 2 μM 1-NPN and 2 μM FoccCSP): 32.5 µM

COc1ccc(C=O)cc1 [Anisic aldehyde]
IC50 [1, 2]: 11.4 µM

Neroli
IC50 [1, 2]: 98.9 µM

CCc1ccccc1 [Ethyl benzene]
IC50 [1]: 63.4 µM | Kd ([1]; 2 μM 1-NPN and 2 μM FoccCSP): 58.5 µM

3- phenyl aldehyde
IC50 [1, 2]: 108 µM

O=Cc1ccccc1O [Salicylaldehyde]
Displacement of 1-NPN from the FoccCSP/1-NPN complex, fluorescence intensity decreased to 50% of the initial value ([1]; ligands up to 300 μM): unable to displace the fluorescent 1-NPN probe

c1ccc(Nc2cccc3ccccc23)cc1 [1-NPN, N-phenyl-1-naphthylamine]
Kd (FoccCSP protein): 11.8 µM

CC(C)=CCC[C@@H](C)CC=O [Citronellal]
IC50 [1, 2]: 76.1 µM

CCCCCC [Hexane]
IC50 [1]: 94.2 µM | Kd ([1]; 2 μM 1-NPN and 2 μM FoccCSP): 86.9 µM

CC12CCC(CC1)C(C)(C)O2 [Eucalyptol]
IC50 [1]: 92.4 µM | Kd ([1]; 2 μM 1-NPN and 2 μM FoccCSP): 85.2 µM

CC(C)=CCCC(C)CCO (centres unmarked) [Citronellol]
IC50 [1]: 75.8 µM | Kd ([1]; 2 μM 1-NPN and 2 μM FoccCSP): 69.9 µM

OCc1ccccc1 [Benzyl alcohol]
IC50 [1]: 119 µM | Kd ([1]; 2 μM 1-NPN and 2 μM FoccCSP): 109 µM

CCCCCCCCC=O [Pelargonic aldehyde]
IC50 [1, 2]: 79 µM

COC(=O)c1ccncc1 [Methyl isonicotinate]
IC50 [1, 2]: 52 µM

— PMC4311994, “Identification, Expression Profiling and Fluorescence-Based Binding Assays of a Chemosensory Protein Gene from the Western Flower Thrips, Frankliniella occidentalis” (PLoS ONE, 2015)
